Experimental data from PubChem BioAssay (NCI).
Values joined by “and” are separate entries in the source; they are usually repeats but may differ in a detail not shown here. Equal entries are not always repeated.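 Step 1: Grow cells in 96-well plates. Step 2: Expose to compound for 48 hours at 5 concentrations. Step 3: Interpolate endpoints linearly; if unreached, use highest concentration. Here, GI50 denotes the concentration required for 50% inhibition of growth. TGI marks complete inhibition of growth.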

Tests used:
Test in all cases: inhibition of tumour cell growth, NCI panel, 48 h
[1] = tested on: HL-60(TB) leukemia
[2] = tested on: HCT-116 colon
[3] = tested on: DU-145 prostate
[4] = tested on: U251 CNS
[5] = tested on: COLO 205 colon
[6] = tested on: SK-MEL-28 melanoma
[7] = tested on: CCRF-CEM leukemia
[8] = tested on: NCI/ADR-RES ovarian
[9] = tested on: NCI-H460 lung
[10] = tested on: SNB-19 CNS

COc1oc(C2C/C(=C/C(C)=C/C(C)=C/C(C)=C/c3ccc([N+](=O)[O-])cc3)CO2)c(C)c(=O)c1C (stereo not drawn)
TGI [1]: 8.13 µM
TGI [2]: 18.2 µM
TGI [3]: > 47.3 µM
TGI [4]: 31.5 µM
TGI [5]: 24.6 µM
TGI [6]: > 60.5 µM
TGI [7]: 23.5 µM
TGI [8]: > 49.6 µM
TGI [9]: 15.8 µM
TGI [10]: 73.7 µM

CC[C@H](C)[C@H](NC(=O)CN(C)C)C(=O)N(C)[C@H](C[C@@H](OC(C)=O)c1nc(C(=O)NC23C4C5C2C2C3C4C52C(=O)OC)cs1)C(C)C (stereo partly drawn)
GI50 [1]: 0.0777 µM
TGI [1]: 0.242 µM
GI50 [2]: 0.201 µM
TGI [2]: > 33.2 µM
GI50 [3]: 0.176 µM
TGI [3]: > 33.2 µM
GI50 [4]: 0.8 µM
TGI [4]: > 33.2 µM
GI50 [5]: 0.247 µM
TGI [5]: 5.53 µM
GI50 [6]: 1.38 µM
TGI [6]: > 33.2 µM
GI50 [7]: 0.18 µM
TGI [7]: > 33.2 µM
GI50 [8]: 11.1 µM
TGI [8]: > 33.2 µM
GI50 [9]: 0.814 µM
TGI [9]: > 33.2 µM
GI50 [10]: 1.31 µM
TGI [10]: > 33.2 µM

CCCCCn1sc(=O)n(Cc2ccc(CNC(=O)C(C)c3ccc(CC(C)C)cc3)cc2)c1=O (stereo not drawn)
GI50 [1]: 1.68 µM
TGI [1]: > 20.5 µM
GI50 [2]: 0.194 µM
TGI [2]: 0.72 µM
GI50 [3]: 1.17 µM
TGI [3]: 2.4 µM
GI50 [4]: 1.56 µM
TGI [4]: 3.04 µM
GI50 [5]: 0.598 µM
TGI [5]: 2.08 µM
GI50 [6]: 1.43 µM
TGI [6]: 2.75 µM
GI50 [7]: 0.337 µM
GI50 [8]: 1.65 µM
TGI [8]: 5.54 µM
GI50 [9]: 1.46 µM
TGI [9]: 3.07 µM
GI50 [10]: 1.55 µM
TGI [10]: 2.91 µM

COc1cc(/C=N\Nc2ccccc2)ccc1OC(=O)c1ccccc1
GI50 [1]: 0.544 µM
TGI [1]: > 72.1 µM
GI50 [2]: 5.76 µM
TGI [2]: > 100 µM
GI50 [3]: 39.4 µM
TGI [3]: > 100 µM
GI50 [4]: 8.38 µM
TGI [4]: 36.5 µM
GI50 [5]: 6.48 µM
TGI [5]: 25.5 µM
GI50 [6]: 19.2 µM
TGI [6]: > 93.1 µM
GI50 [7]: 2.44 µM
TGI [7]: > 100 µM
GI50 [8]: 0.903 µM
TGI [8]: > 100 µM
GI50 [9]: 1.22 µM
TGI [9]: > 46 µM
GI50 [10]: 19.8 µM
TGI [10]: > 100 µM

O=C(Nc1c[nH]c(=O)[nH]c1=O)Oc1ccccc1
TGI [1]: 33.5 µM
TGI [2]: > 100 µM
TGI [3]: > 100 µM
TGI [4]: > 100 µM
TGI [5]: > 100 µM
TGI [6]: > 100 µM
TGI [7]: > 100 µM
TGI [8]: > 100 µM
TGI [9]: > 100 µM
TGI [10]: > 100 µM

COc1ccc2c(c1O)[C@@]13CCCC=C1[C@@H](C2)N(C)CC3
TGI [1]: > 100 µM
TGI [2]: > 100 µM
TGI [3]: > 100 µM
TGI [4]: > 100 µM
TGI [5]: > 100 µM
TGI [6]: > 100 µM
TGI [7]: > 100 µM
TGI [8]: > 100 µM
TGI [9]: > 100 µM
TGI [10]: > 100 µM

COc1ccc(/C=C\c2cc(OC)c(OC)c(OC)c2)cc1NC(=O)/C=C/c1cc(OC)c(OC)c(OC)c1
GI50 [1]: 1.95 µM
TGI [1]: 8.03 µM
GI50 [2]: 3.83 µM
TGI [2]: > 100 µM
GI50 [3]: 5.01 µM
TGI [3]: > 100 µM
GI50 [4]: 3.82 µM
TGI [4]: > 100 µM
GI50 [5]: 4.41 µM
TGI [5]: 18.5 µM
GI50 [6]: 3.42 µM
TGI [6]: > 100 µM
GI50 [7]: 4.16 µM
TGI [7]: > 100 µM
GI50 [8]: 2.1 µM
TGI [8]: > 100 µM
GI50 [9]: 3.61 µM
TGI [9]: > 100 µM
GI50 [10]: 5.64 µM
TGI [10]: > 100 µM

CCOC(=O)Nc1cc2c(c(N)n1)N=C(c1ccc(Cl)cc1Cl)CN2
TGI [1]: 0.0585 µM
TGI [2]: 12.7 µM
TGI [3]: 13.3 µM
TGI [4]: 18 µM
TGI [5]: 4.85 µM
TGI [6]: 29.5 µM
TGI [7]: > 100 µM
TGI [8]: 18.9 µM
TGI [9]: 6.3 µM
TGI [10]: 23.2 µM

COc1cc(F)c(F)c(Nc2ccc(I)cc2F)c1NS(=O)(=O)C1(CC(O)CO)CC1 (stereo not drawn)
GI50 [1]: 7.19 µM
TGI [1]: 57.7 µM
GI50 [2]: 13.5 µM
TGI [2]: 31.6 µM
GI50 [3]: 19.4 µM
TGI [3]: 54 µM
GI50 [4]: 15.2 µM
TGI [4]: 39.9 µM
GI50 [5]: 3.43 µM
TGI [5]: 16.1 µM
GI50 [6]: 3.02 µM
TGI [6]: 13.7 µM
GI50 [7]: 19.8 µM
TGI [7]: > 72.3 µM
GI50 [8]: 18.8 µM
TGI [8]: 57.9 µM
GI50 [9]: 13.9 µM
TGI [9]: 33.2 µM
GI50 [10]: 11 µM
TGI [10]: 50.1 µM

O=C1c2ccc3c4c(ccc(c24)C(=O)N1CCCCO)C(=O)N(CCCCO)C3=O
GI50 [1]: 2.07 µM
TGI [1]: 7.43 µM
GI50 [2]: 1.22 µM
TGI [2]: 6.16 µM
GI50 [3]: 2.2 µM
TGI [3]: 6.32 µM
GI50 [4]: 2.14 µM
TGI [4]: 6.57 µM
GI50 [5]: 0.888 µM
TGI [5]: 2.5 µM
GI50 [6]: 2.6 µM
TGI [6]: 10.4 µM
GI50 [7]: 2.74 µM
TGI [7]: > 100 µM
GI50 [8]: 2.33 µM
TGI [8]: 11 µM
GI50 [9]: 1.12 µM
TGI [9]: 4.75 µM
GI50 [10]: 2.34 µM
TGI [10]: 10.5 µM

N#Cc1cnn(C(=O)c2nn(-c3ccc(Cl)cc3)cc2O)c1N
GI50 [1]: 0.354 µM
TGI [1]: 2.27 µM
GI50 [2]: 0.26 µM
TGI [2]: 10.9 µM
GI50 [3]: 0.57 µM
TGI [3]: 28.4 µM
GI50 [4]: 0.284 µM
TGI [4]: 20.6 µM
GI50 [5]: 0.619 µM
TGI [5]: 2.13 µM
GI50 [6]: 0.63 µM
TGI [6]: 27.3 µM
GI50 [7]: 0.279 µM
TGI [7]: 4.03 µM
GI50 [8]: 0.401 µM
TGI [8]: 8.78 µM
GI50 [9]: 0.189 µM
TGI [9]: 0.507 µM
GI50 [10]: 0.443 µM
TGI [10]: > 60.5 µM

COc1cc2c(cc1O)CCN[C@@]21CS[C@H]2c3c(OC(C)=O)c(C)c4c(c3C(COC1=O)N1C2C2NC(Cc3cc(C)c(OC)c(O)c32)[C@@H]1O)OCO4 (stereo partly drawn)
TGI [1]: > 100 µM and 8.2e-07 µg/mL
GI50 [2]: 4.5 ng/mL
TGI [2]: 11.9 µM and 4.86 µg/mL
TGI [3]: 11 µM
GI50 [4]: 4.5 ng/mL
TGI [4]: < 10 nM and 0.28 µg/mL
GI50 [5]: 4.5 ng/mL
TGI [5]: < 10 nM and 1.9e-07 µg/mL and 0.0045 µg/mL
TGI [6]: < 10 nM and 3.1e-07 µg/mL and 0.0045 µg/mL
GI50 [7]: 4.5 ng/mL
TGI [7]: > 100 µM and 0.000154 µg/mL and 0.0045 µg/mL
TGI [8]: 0.0369 µM
TGI [9]: < 0.01 µM
TGI [10]: 11.4 µM

COC(=O)c1sc(-n2cnc3cc(OC)c(OC)cc32)cc1OCc1ccccc1C(F)(F)F
GI50 [1]: > 25 µM
TGI [1]: > 25 µM
GI50 [2]: > 21.8 µM
TGI [2]: > 25 µM
GI50 [3]: > 25 µM
TGI [3]: > 25 µM
GI50 [4]: 10.8 µM
TGI [4]: > 25 µM
GI50 [5]: > 25 µM
TGI [5]: > 25 µM
GI50 [6]: > 25 µM
TGI [6]: > 25 µM
GI50 [7]: > 25 µM
TGI [7]: > 25 µM
GI50 [8]: > 25 µM
TGI [8]: > 25 µM
GI50 [9]: 18.7 µM
TGI [9]: > 25 µM
GI50 [10]: 24.9 µM
TGI [10]: > 25 µM

OC[C@H]1C[C@](O)(c2ccccc2Cl)[C@@H](c2ccccc2Cl)O1
GI50 [1]: 16.5 µM
TGI [1]: 38.7 µM
GI50 [2]: 25.7 µM
TGI [2]: 68.6 µM
GI50 [3]: 27.1 µM
TGI [3]: 74.3 µM
GI50 [4]: 28.5 µM
TGI [4]: > 100 µM
GI50 [5]: 14.7 µM
TGI [5]: 34.6 µM
GI50 [6]: 26.4 µM
TGI [6]: 79.6 µM
GI50 [7]: 27.8 µM
TGI [7]: > 100 µM
GI50 [8]: 29.4 µM
TGI [8]: > 100 µM
GI50 [9]: 19.8 µM
TGI [9]: 49.6 µM
GI50 [10]: 31.7 µM
TGI [10]: > 100 µM

COc1cc(C2c3cc4c(cc3[C@@H](Nc3ccc(F)cc3)C3COC(=O)[C@H]23)OCO4)cc(OC)c1O (stereo partly drawn)
GI50 [1]: 0.181 µM and 0.631 µM
TGI [1]: 0.839 µM and 6.02 µM
TGI [2]: 22.3 µM
TGI [3]: 8.89 µM
GI50 [4]: 0.451 µM
TGI [4]: 8.9 µM
TGI [5]: 15.6 µM
TGI [6]: 48.3 µM
GI50 [7]: 0.201 µM and 0.347 µM
TGI [7]: 19.6 µM
TGI [8]: 45.7 µM
GI50 [9]: 0.124 µM
TGI [9]: 4.11 µM
GI50 [10]: 0.569 µM
TGI [10]: 33.9 µM

COc1ccc([C@@H]2[C@@H](Cl)C(=O)N2c2cc(OC)c(OC)c(OC)c2)cc1C
GI50 [1]: 0.0272 µM
TGI [1]: 0.0767 µM
GI50 [2]: 0.0401 µM
TGI [2]: 11.4 µM
GI50 [3]: 0.0405 µM
TGI [3]: 0.236 µM
GI50 [4]: 0.044 µM
TGI [4]: 17.5 µM
GI50 [5]: 0.0386 µM
TGI [5]: 0.159 µM
GI50 [6]: 11 µM
TGI [6]: > 100 µM
GI50 [7]: 0.0465 µM
TGI [7]: > 100 µM
GI50 [8]: 0.0426 µM
TGI [8]: > 100 µM
GI50 [9]: 0.313 µM
TGI [9]: 14.4 µM
GI50 [10]: 0.0535 µM
TGI [10]: > 100 µM
